Data published in the supplement of paper PMC10307832.

Key:
Ponatinib + Navitoclax = compound: Cc1ccc(C(=O)Nc2ccc(CN3CCN(C)CC3)c(C(F)(F)F)c2)cc1C#Cc1cnc2cccnn12 [Ponatinib] + CC1(C)CCC(c2ccc(Cl)cc2)=C(CN2CCN(c3ccc(C(=O)NS(=O)(=O)c4ccc(N[C@H](CCN5CCOCC5)CSc5ccccc5)c(S(=O)(=O)C(F)(F)F)c4)cc3)CC2)C1 [Navitoclax] (partner 0.5 µM); test: relative viability (nuclei count vs DMSO), 5 days (fraction); higher = more cells survive
Procedure, shortened: (§1)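 Each reported value is a median over duplicate plates. It expresses relative viability: treated-well nuclei count divided by vehicle-well nuclei count. Lung cancer cell lines in 1536-well plates were dosed by pin tool a day after seeding, alone with one drug or with a fixed anchor-drug dose plus five library-drug doses (not always all listed) in √10 steps, and nuclei were counted after 5 days.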

Pazopanib + Foretinib = compound: Cc1ccc(Nc2nccc(N(C)c3ccc4c(C)n(C)nc4c3)n2)cc1S(N)(=O)=O [Pazopanib] + COc1cc2c(Oc3ccc(NC(=O)C4(C(=O)Nc5ccc(F)cc5)CC4)cc3F)ccnc2cc1OCCCN1CCOCC1 [Foretinib] (partner 0.25 µM); test: as above
Procedure, shortened: as §1

Row | Cell Line | relative viability (Ponatinib + Navitoclax; first compound 0.002 µM) | relative viability (Ponatinib + Navitoclax; first compound 0.006325 µM) | relative viability (Ponatinib + Navitoclax; first compound 0.06325 µM) | relative viability (Ponatinib + Navitoclax; first compound 0.2 µM) | relative viability (Pazopanib + Foretinib; first compound 0.01 µM) | relative viability (Pazopanib + Foretinib; first compound 0.03162 µM) | relative viability (Pazopanib + Foretinib; first compound 0.1 µM) | relative viability (Pazopanib + Foretinib; first compound 0.3162 µM) | relative viability (Pazopanib + Foretinib; first compound 1 µM)
1 | NCI-H2085 | 1.1 | 1.16 | 1.28 | 1.16 | 0.972 | 1.06 | 1.01 | 0.96 | 1.11
2 | NCI-H1944 | 1.04 | 1.09 | 1.2 | 1.02 |  | 0.94 | 0.905 | 0.861 | 0.986
3 | LC-2-ad | 0.482 | 0.419 | 0.49 | 0.349 | 0.888 | 0.927 | 1.05 | 0.967 | 1.04
4 | COR-L 105 | 0.832 | 0.8 | 0.832 | 0.955 | 0.926 | 0.87 | 1.15 | 1.04 | 1.18
5 | NCI-H1355 | 0.984 | 1.08 | 1.17 | 1.08 | 0.804 | 1 | 1.08 | 0.979 | 1
6 | H3255 | 0.477 | 0.501 | 0.725 | 0.479 | 0.625 | 0.838 | 0.794 | 0.84 | 0.939
7 | NCI-H1993 | 0.881 | 1.07 | 1.25 | 0.943 |  | 0.69 | 0.783 | 0.728 | 0.817
8 | NCI-H1734 | 0.805 | 0.828 | 0.877 | 0.739 | 0.829 | 0.948 | 0.873 | 0.893 | 0.926
9 | HOP-62 | 0.943 | 0.984 | 1.01 | 0.817 | 1.05 | 1.04 | 1.2 | 1.08 | 0.976
10 | LOU-NH91 | 0.679 | 0.753 | 0.779 | 0.655 | 0.898 | 0.92 | 0.945 | 0.967 | 0.948
11 | ChaGo-K-1 | 0.914 | 1.18 | 1.05 | 0.954 | 0.934 | 0.909 | 1.01 | 0.884 | 0.946
12 | NCI-H2228 | 1.18 | 1.01 | 1.43 | 0.811 | 0.938 | 1.01 | 0.764 | 0.792 | 0.993
13 | PC-3 [JPC-3] | 0.792 | 0.754 | 0.902 | 0.748 | 1.05 | 1.01 | 1.12 | 1.06 | 0.995
14 | NCI-H1437 | 1.06 | 1.08 | 1.22 | 1.08 | 1.33 | 1.25 | 1.16 | 1.21 | 1.31
15 | NCI-H520 | 0.946 | 1.1 | 0.922 | 0.646 | 0.675 | 1.02 | 0.688 | 0.799 | 0.936
16 | NCI-H1666 | 0.94 | 1.15 | 1.18 | 0.979 | 0.998 | 1.01 | 0.995 | 1.02 | 1.1
17 | SW 900 |  |  |  |  | 0.843 | 0.886 | 0.941 | 0.876 | 0.97
18 | NCI-H1651 | 1.01 | 1.06 | 1.25 | 1.06 | 0.836 | 0.734 | 0.817 | 0.773 | 0.895
19 | NCI-H1755 | 0.962 | 0.947 | 1.02 | 0.803 | 0.79 | 0.868 | 0.896 | 0.872 | 0.874

Row | Cell Line | relative viability (Ponatinib + Navitoclax; first compound 0.002 µM) | relative viability (Ponatinib + Navitoclax; first compound 0.006325 µM) | relative viability (Ponatinib + Navitoclax; first compound 0.06325 µM) | relative viability (Ponatinib + Navitoclax; first compound 0.2 µM) | relative viability (Pazopanib + Foretinib; first compound 0.01 µM) | relative viability (Pazopanib + Foretinib; first compound 0.03162 µM) | relative viability (Pazopanib + Foretinib; first compound 0.1 µM) | relative viability (Pazopanib + Foretinib; first compound 0.3162 µM) | relative viability (Pazopanib + Foretinib; first compound 1 µM)
20 | NCI-H727 | 0.612 | 0.53 | 0.472 | 0.523 | 0.698 | 0.981 | 1.04 | 1.23 | 0.913
21 | HARA | 1.13 | 1.14 | 1.12 | 1.16 | 0.902 | 0.977 | 1 | 0.884 | 0.95
22 | NCI-H647 | 1.04 | 1.07 | 1.21 | 0.935 | 1.13 | 0.974 | 1.14 | 0.925 | 0.854
23 | NCI-H1563 |  |  |  |  | 0.823 | 0.966 | 1.04 | 0.969 | 1.08
24 | NCI-H23 | 0.762 | 0.828 | 0.852 | 0.781 | 1.1 | 1.02 | 0.964 | 0.947 | 1.12
25 | A549 | 1.17 | 1.11 | 1.37 | 1.16 | 0.905 | 1.03 | 1.16 | 0.985 | 0.913
26 | LCLC-97TM1 |  | 0.645 |  | 0.385 | 0.908 | 0.976 | 1.03 | 0.909 | 0.905
27 | EPLC-272H | 0.989 | 1.23 | 1.18 | 1.05 |  | 0.762 | 0.693 | 0.758 | 0.793
28 | NCI-H2342 |  |  |  |  | 0.981 | 1 | 1.09 | 0.939 | 0.755
29 | NCI-H1915 | 0.779 | 0.795 | 0.772 | 0.746 | 1.04 | 1.09 | 1.1 | 1.06 | 0.983
30 | NCI-H3122 | 1.04 | 1.03 | 1.04 | 1.01 | 0.999 | 0.932 | 1.01 | 0.992 | 0.996
31 | NCI-H441 | 0.638 | 0.42 | 0.554 | 0.596 | 0.974 | 1.14 | 0.859 | 1 | 0.857
32 | NCI-H358 |  |  |  |  | 0.726 | 0.91 | 0.838 |  | 0.918
33 | NCI-H1623 |  |  |  |  | 0.835 | 0.846 | 0.834 | 0.896 | 0.911
34 | NCI-H1793 | 0.495 | 0.422 | 0.54 | 0.478 |  | 0.478 | 0.628 | 0.867 | 0.938
35 | IA-LM | 0.658 | 0.62 | 0.749 | 0.684 | 1.17 | 1.07 | 1.13 | 1.04 | 1.02
36 | SK-MES-1 | 1.25 | 1.12 | 1.3 | 1.19 | 0.95 | 0.985 | 0.951 | 0.951 | 1.1
37 | PC-14 | 0.927 | 1 | 1.14 | 0.919 | 0.962 | 0.972 | 1.11 | 1.03 | 1
38 | CAL-12T | 1.07 | 1.16 | 1.43 | 1.24 | 1.03 | 1.06 | 1.17 | 1.05 | 0.97
